Laboratory results as given in PMC3170264 (Retrovirology, 2011).
Where a chain is given by its changes, count along the chain named.

What was measured:
Type in all cases: biochemical
[1] = molecular target: T1, HIV-2 N1 IN (Human immunodeficiency virus type 2 subtype B, UniProt Q89928, I1218V/I1301V/I1372V/M1455R/N1185G/N1438H/R1202K/R1392Q/T1348V/T1383A/V1460M); assay: strand transfer inhibition, IN from clinical isolate N1 (wild-type reference); settings: IN from RAL-naive patient N1; 200 nM IN; 37°C; Mg2+
T1 construct: His-tag (pET-15b) (N); made in house; host or cells: Escherichia coli BL21-CodonPlus (DE3)-RIPL
T1 sequence (Q89928 1169-1464 N1185G/R1202K/I1218V/I1301V/T1348V/I1372V/T1383A/R1392Q/N1438H/M1455R/V1460M limits assumed): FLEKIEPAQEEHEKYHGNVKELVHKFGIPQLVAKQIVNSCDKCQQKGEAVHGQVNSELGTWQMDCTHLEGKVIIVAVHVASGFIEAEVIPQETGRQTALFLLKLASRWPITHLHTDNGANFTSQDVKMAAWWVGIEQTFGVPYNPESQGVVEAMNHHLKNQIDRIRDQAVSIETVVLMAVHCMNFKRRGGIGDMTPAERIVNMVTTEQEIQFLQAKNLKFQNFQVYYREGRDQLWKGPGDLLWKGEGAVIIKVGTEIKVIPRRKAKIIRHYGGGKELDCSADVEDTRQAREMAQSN
Procedure: The ST reaction was performed using a ^32P-labeled oligonucleotide mimicking the preprocessed substrate. Drug concentrations are indicated above each lane. […] Activity is expressed as a % of control without drug. Experiments were repeated two times.
(§1) The HIV-2 ODN substrate sequences were: UA: 5'-[…]-3'; U5B: 5'-[…]-3'; U5B-2: 5'-[…] […]-3'.

[2] = molecular target: T2, HIV-2 IN Q148R (Human immunodeficiency virus type 2 subtype B, UniProt Q89928, I1218V/I1301V/I1372V/M1455R/N1185G/N1438H/Q1316R/R1202K/R1392Q/T1348V/T1383A/V1460M); assay: susceptibility to RAL, site-directed mutant in N1 background; settings: preliminary studies with high protein concentrations
T2 construct: His-tag (pET-15b) (N); made in house; host or cells: Escherichia coli BL21-CodonPlus (DE3)-RIPL
T2 sequence (Q89928 with tags, fused parts or gaps N1185G/R1202K/I1218V/I1301V/Q1316R/T1348V/I1372V/T1383A/R1392Q/N1438H/M1455R/V1460M): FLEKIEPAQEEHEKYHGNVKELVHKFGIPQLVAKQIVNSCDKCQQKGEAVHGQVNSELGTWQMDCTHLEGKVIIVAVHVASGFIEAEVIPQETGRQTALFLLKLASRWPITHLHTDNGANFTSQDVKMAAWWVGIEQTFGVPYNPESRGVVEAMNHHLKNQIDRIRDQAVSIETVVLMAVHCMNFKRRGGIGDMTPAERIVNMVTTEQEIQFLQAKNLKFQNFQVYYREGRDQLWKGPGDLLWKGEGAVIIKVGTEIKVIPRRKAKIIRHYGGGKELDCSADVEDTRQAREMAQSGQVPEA
From the text: (§2) Primer 1: N1, N2, T1, T2, 5'-[…]-3'; N3, 5'-[…] […]-3'; T3-T7, 5'-[…]-3'. Primers 2: N1, 5'-[…]-3'; N2, 5'-[…] […]-3'; N3, 5'-[…] C-3'; T1, T2, 5'-[…]-3'; T3-T7, 5'-GGATC […] -3'.
as §1

[3] = molecular target: T3, HIV-2 IN E92Q/Y143C (Human immunodeficiency virus type 2 subtype B, UniProt Q89928, E1260Q/I1218V/I1301V/I1372V/M1455R/N1185G/N1438H/R1202K/R1392Q/T1348V/T1383A/V1460M/Y1311C); assay: strand transfer inhibition, site-directed mutant in N1 background; settings: E92Q/Y143C double mutant in N1 background; 200 nM IN
T3 construct: His-tag (pET-15b) (N); made in house; host or cells: Escherichia coli BL21-CodonPlus (DE3)-RIPL
T3 sequence (Q89928 with tags, fused parts or gaps N1185G/R1202K/I1218V/E1260Q/I1301V/Y1311C/T1348V/I1372V/T1383A/R1392Q/N1438H/M1455R/V1460M): T2 sequence (Q89928 with tags, fused parts or gaps N1185G/R1202K/I1218V/I1301V/Q1316R/T1348V/I1372V/T1383A/R1392Q/N1438H/M1455R/V1460M) with E92Q, Y143C, R148Q
Procedure: (§3) Activity is expressed as a % of control without drug. Experiments were performed two times.
as §2, §1

[4] = molecular target: T4, HIV-2 IN Y143C/N155H (Human immunodeficiency virus type 2 subtype B, UniProt Q89928, I1218V/I1301V/I1372V/M1455R/N1185G/N1323H/N1438H/R1202K/R1392Q/T1348V/T1383A/V1460M/Y1311C); assay: as above; settings: Y143C/N155H double mutant in N1 background; 200 nM IN
T4 construct: His-tag (pET-15b) (N); made in house; host or cells: Escherichia coli BL21-CodonPlus (DE3)-RIPL
T4 sequence (Q89928 with tags, fused parts or gaps N1185G/R1202K/I1218V/I1301V/Y1311C/N1323H/T1348V/I1372V/T1383A/R1392Q/N1438H/M1455R/V1460M): T2 sequence (Q89928 with tags, fused parts or gaps N1185G/R1202K/I1218V/I1301V/Q1316R/T1348V/I1372V/T1383A/R1392Q/N1438H/M1455R/V1460M) with Y143C, R148Q, N155H
Procedure: as §3, §2, §1

[5] = molecular target: T5, HIV-2 IN G140S (Human immunodeficiency virus type 2 subtype B, UniProt Q89928, G1308S/I1218V/I1301V/I1372V/M1455R/N1185G/N1438H/R1202K/R1392Q/T1348V/T1383A/V1460M); assay: as above; settings: 200 nM IN
T5 construct: His-tag (pET-15b) (N); made in house; host or cells: Escherichia coli BL21-CodonPlus (DE3)-RIPL
T5 sequence (Q89928 with tags, fused parts or gaps N1185G/R1202K/I1218V/I1301V/G1308S/T1348V/I1372V/T1383A/R1392Q/N1438H/M1455R/V1460M): T2 sequence (Q89928 with tags, fused parts or gaps N1185G/R1202K/I1218V/I1301V/Q1316R/T1348V/I1372V/T1383A/R1392Q/N1438H/M1455R/V1460M) with G140S, R148Q
Procedure: as §3, §2, §1

For Cc1nnc(C(=O)NC(C)(C)c2nc(C(=O)NCc3ccc(F)cc3)c(O)c(=O)n2C)o1 [RAL, raltegravir], the IC50 [1] was 0.023 µM, the “susceptibility to RAL” value [2] was “not susceptible” and the IC50 [3] was 0.37 µM. The IC50 [4] was 0.29 µM and the “susceptibility to RAL, strand transfer” value [5] was “as susceptible to RAL as the wild-type reference N1 enzyme”.
